The test system of assay [1] is Bev-resistant RF24 cells. The assay is described as follows: Cell death in bevacizumab-resistant RF24 cells (SYTOX-green flow cytometry). It counts as cell-based. How it is done: FIGS. 4A-D: BIDEN-AP-based agents inhibit microtubule formation and sensitizes resistant endothelial cells to anti-VEGF antibody. (FIG. 4A, FIG. 4B) Microtubule formation in RF24 cells treated with EFNB2-Fc (2 nM) or BIDEN-AP (15 μM) compared to untreated controls (CTL). Five images per well were taken at ×100 magnification. […] Representative plots from flow cytometry analysis with SYTOX-green are shown. […] Data are presented as mean±SD (n=6). *p<0.05, **p<0.01.
Given the important role of endothelium in adaptive changes with anti-angiogenic therapy (Bergers et al., 2008), we further tested the effects of BIDEN-AP in overcoming resistance to anti-VEGF therapy in RF24 cells. To do this, we first established a bevacizumab (Bev)-resistant RF24 cell line selected though continuous Bev treatment at low dose ([…]) for 2 weeks. The Bev-resistant RF24 cells were maintained at a Bev concentration of […]. Using flow cytometry with SYTOX-green staining, we quantified the live (SYTOX-negative) vs. dead (SYTOX-positive) populations after treatment with BIDEN-AP or CCPM-BIDEN-AP.
(In general: Flow cytometry measures light scatter and fluorescence of single cells or particles in a stream.)

The test system of assay [2] is A2780cp20-Luc tumors. The assay is described as follows: Orthotopic A2780cp20-Luc ovarian cancer model. In kind it is in vivo, mouse. The source says: Female nude mice were intraperitoneally (i.p.) inoculated with […] tumor cells. […] Tumor growth was monitored by bioluminescence imaging (IVIS). […] CTL, untreated control.
Orthotopic ovarian cancer models. […] For all therapeutic experiments, groups of the mice (n=8-10) were inoculated intraperitoneally with A2780cp20-Luc cells. […] Untreated mice were used as a control.
Immunoblotting, immunoprecipitation, and co-immunoprecipitation. For immunoblotting, lysates from cultured cells were prepared using modified radioimmunoprecipitation assay (RIPA) buffer (50 mM Tris-HCl [pH 7.4], 150 mM NaCl, 1% Triton, 0.5% deoxycholate) plus 25 μg/mL leupeptin, 10 μg/mL aprotinin, 2 mM EDTA, and 1 mM sodium orthovanadate. To prepare lysates of snap-frozen tissue from mice, approximately 30-mm^3 cuts of tissue were disrupted with a tissue homogenizer and subjected to centrifugation at 13,000 rpm for 30 min in modified RIPA buffer. The protein concentrations were determined by using a BCA Protein Assay Reagent kit (Pierce Biotechnology, Rockford, IL). Lysates were loaded and separated by 8% sodium dodecyl sulfate (SDS)-polyacrylamide gel electrophoresis (PAGE). Proteins were transferred to a nitrocellulose membrane by semidry electrophoresis (Bio-Rad Laboratories, Hercules, CA) overnight, blocked with 3% BSA for 1 h, and then incubated at 4° C. with primary antibody overnight. After washing with a mixture of tris-buffered saline and Tween 20 (TBST) solutions, the membranes were incubated with horseradish peroxidase (HRP)-conjugated horse anti-mouse IgG (1:2000, GE Healthcare, Amersham Place, UK) for 2 h. HRP was visualized by an enhanced chemoluminescence detection kit (Pierce). […] Densitometry was performed using ImageJ software. For immunoprecipitation and co-immunoprecipitation, cells were subjected to lysis in non-denaturing NP40 cell lysis buffer (Cell Signaling Technology, Boston, MA). The extracts were incubated with A/G-conjugated antibody at 4° C. for 2 h, and for immunoprecipitation the beads were washed twice with RIPA buffer, once with 0.5 m LiCl in 0.1 m Tris (pH 8.0), and once with PBS. Reactions were boiled in sample buffer, and proteins were then subjected to 10% SDS-PAGE and immunoblotting.
Immunofluorescence analysis of CD31 was performed on 5-μm-thick fresh-frozen tissue samples. After deblocking with acetone, acetone-chloroform (1:1), and acetone for 5 min, non-specific binding was blocked with 4% fish gelatin (Biotium Inc, Hayward, CA) in PBS for 30 min.
Immunohistochemistry (IHC) analysis.

For the substance “CCPM-BIDEN-AP: nano-conjugate of Cys-BIDEN-AP on core-crosslinked polymeric micelles via maleimide (GMBS) (CTNYLFSPNGPIARAW; D-residues)”, the “sensitization of Bev-resistant cells to Bev treatment” value in assay [1] was “re-sensitized these cells to Bev treatment”. Also, the bioluminescence signal intensity result in assay [2] (day 28, 13 mg/kg/injection i.p., 10 doses) is “significantly reduced the bioluminescence signal intensity”. Besides, the “metastatic nodules, comparison of the two agents” value in assay [2] (day 31) was “reduced metastatic nodules to a greater extent than BIDEN-AP”. Moreover, the “tumor growth in the peritoneum (tumor weight, number of metastatic nodules)” value in assay [2] (day 31, 13 mg/kg/injection i.p., 10 doses) is reported as “significantly reduced tumor growth”. For the same substance, in assay [2] (excised tumors), the “apoptotic cell death in CD31 endothelial vasculature (TUNEL)” value is reported as “induced apoptotic cell death” and the “tumor cell proliferation (Ki67-positive cells)” value was “significantly reduced tumor cell proliferation”. The “microvessel density (MVD)” value in assay [2] (excised tumors, CD31) is “decreased microvessel density”. Moreover, in assay [2] (orthotopic A2780cp20 tumors), the “EphB4 and Crk1 phosphorylation in vivo” value was “induce EphB4 and Crk1 phosphorylation”.

The values are drawn from patent US12448425B2, “Therapeutic peptides” (Board of Regents, The University of Texas System, priority 2019, dated 2025).
